Reference: patent US20230058733A1, “OGA INHIBITOR COMPOUNDS” (JANSSEN PHARMACEUTICA NV, priority 2019, published 2023)

Assays:
hOGA = biological target: T1, hOGA (Homo sapiens, UniProt O60502); assay: OGA cellular assay (ICC detection of O-GlcNAcylated proteins in HEK293 cells inducible for P301L mutant human Tau); assay type: cell-based; details: for EC50: HEK293 cells inducible for P301L mutant human Tau (2N4R), 6 hours incubation, O-GlcNAcylation readout at 488 nm, read-out: Cellular hOGA, pEC50 (converted); for Emax: HEK293 cells inducible for P301L mutant human Tau, maximum defined by Thiamet G at 200 uM
T1 construct: HEK293 cells inducible for P301L mutant human Tau (isoform 2N4R) were established at Janssen; endogenous in cells; host or cells: HEK293 cells inducible for P301L mutant human Tau (2N4R)
T1 sequence (O60502 1-916): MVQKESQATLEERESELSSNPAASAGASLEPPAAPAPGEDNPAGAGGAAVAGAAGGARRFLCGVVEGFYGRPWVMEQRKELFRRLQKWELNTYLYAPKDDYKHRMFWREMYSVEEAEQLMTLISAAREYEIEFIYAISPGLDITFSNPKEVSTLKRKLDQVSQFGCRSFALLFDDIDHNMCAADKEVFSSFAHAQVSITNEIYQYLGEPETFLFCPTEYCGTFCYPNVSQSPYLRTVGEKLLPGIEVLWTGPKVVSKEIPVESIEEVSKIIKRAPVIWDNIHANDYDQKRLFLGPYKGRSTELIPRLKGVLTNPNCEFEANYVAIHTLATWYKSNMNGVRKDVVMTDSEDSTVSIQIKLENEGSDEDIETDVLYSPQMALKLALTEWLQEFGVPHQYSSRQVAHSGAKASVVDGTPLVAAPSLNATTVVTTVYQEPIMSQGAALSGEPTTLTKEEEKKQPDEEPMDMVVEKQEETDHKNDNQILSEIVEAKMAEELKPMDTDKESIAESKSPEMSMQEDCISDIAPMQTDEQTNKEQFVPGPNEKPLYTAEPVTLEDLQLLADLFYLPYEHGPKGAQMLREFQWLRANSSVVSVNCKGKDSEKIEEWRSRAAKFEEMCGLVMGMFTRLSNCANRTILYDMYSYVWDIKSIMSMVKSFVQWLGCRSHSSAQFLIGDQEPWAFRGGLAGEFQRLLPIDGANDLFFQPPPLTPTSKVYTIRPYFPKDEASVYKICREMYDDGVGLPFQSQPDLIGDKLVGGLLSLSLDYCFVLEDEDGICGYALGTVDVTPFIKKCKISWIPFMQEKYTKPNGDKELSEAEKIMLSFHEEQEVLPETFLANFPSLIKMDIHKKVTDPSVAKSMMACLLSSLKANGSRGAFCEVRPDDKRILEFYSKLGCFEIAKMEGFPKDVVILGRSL
Procedure: HEK293 cells inducible for P301L mutant human Tau (isoform 2N4R) were established at Janssen. Thiamet-G was used for both plate validation (high control) and as reference compound (reference EC50 assay validation). OGA inhibition is evaluated through the immunocytochemical (ICC) detection of O-GlcNAcylated proteins by the use of a monoclonal antibody (CTD110.6; Cell Signaling, #9875) detecting 0-GlcNAcylated residues as previously described (Dorfmueller et al. 2010 Chemistry & biology, 17:1250). Inhibition of OGA will result in an increase of O-GlcNAcylated protein levels resulting in an increased signal in the experiment. Cell nuclei are stained with Hoechst to give a cell culture quality control and a rough estimate of immediate compounds toxicity, if any. ICC pictures are imaged with a Perkin Elmer Opera Phenix plate microscope and quantified with the provided software Perkin Elmer Harmony 4.1.
Cells were propagated in DMEM high Glucose (Sigma, #D5796) following standard procedures. 2 days before the cell assay cells are split, counted and seeded in Poly-D-Lysine (PDL) coated 96-wells (Greiner, #655946) plate at a cell density of 12,000 cells per cm^2 (4,000 cells per well) in 100 μl of Assay Medium (Low Glucose medium is used to reduce basal levels of GlcNAcylation) (Park et al. 2014 The Journal of biological chemistry 289:13519). At the day of compound test medium from assay plates was removed and replenished with 90[d of fresh Assay Medium. 10 μl of compounds at a 10 fold final concentration were added to the wells. Plates were centrifuged shortly before incubation in the cell incubator for 6 hours. DMSO concentration was set to 0.2%. Medium is discarded by applying vacuum. For staining of cells medium was removed and cells washed once with 100 μl D-PBS (Sigma, #D8537). From next step onwards unless other stated assay volume was always 50 μl and incubation was performed without agitation and at room temperature. Cells were fixed in 50 μl of a 4% paraformaldehyde (PFA, Alpha aesar, #043368) PBS solution for 15 minutes at room temperature. […] Before analysis samples were washed 2 times manually for 5 minutes in ICC base buffer.
Imaging is performed using Perkin Elmer Phenix Opera using a water 20× objective and recording 9 fields per well. Intensity readout at 488 nm is used as a measure of O-GlcNAcylation level of total proteins in wells. To assess potential toxicity of compounds nuclei were counted using the Hoechst staining. IC50-values are calculated using parametric non-linear regression model fitting. As a maximum inhibition Thiamet G at a 200 uM concentration is present on each plate. In addition, a concentration response of Thiamet G is calculated on each plate.

[1] = biological target: T2, recombinant human Meningioma Expressed Antigen 5 (MGEA5), also referred to as O-GlcNAcase (OGA) (Homo sapiens, UniProt O60502); assay: OGA biochemical assay (inhibition of FM-GlcNAc hydrolysis, fluorescence); details: full length OGA 2 nM, FM-GlcNAc 100 uM; for IC50: pH 7.2, 6 h at room temperature, read-out: Enzymatic hOGA, pIC50 (converted); for Emax: relative to high and low controls, read-out: Enzymatic Emax (%)
T2 construct: Full length OGA enzyme was purchased at OriGene (cat #TP322411); purchased OriGene TP322411
T2 sequence (O60502 1-916): T1 sequence (O60502 1-916)
Description: The assay is based on the inhibition of the hydrolysis of fluorescein mono-β-D-N-Acetyl-Glucosamine (FM-GlcNAc) (Mariappa et al. 2015, Biochem J 470:255) by the recombinant human Meningioma Expressed Antigen 5 (MGEA5), also referred to as O-GlcNAcase (OGA). The hydrolysis FM-GlcNAc (Marker Gene technologies, cat #M1485) results in the formation of […] and fluorescein. The fluorescence of the latter can be measured at excitation wavelength 485 nm and emission wavelength 538 nm. An increase in enzyme activity results in an increase in fluorescence signal. Full length OGA enzyme was purchased at OriGene (cat #TP322411). The enzyme was stored in 25 mM Tris.HCl, pH 7.3, 100 mM glycine, 10% glycerol at −20° C. Thiamet G and GlcNAcStatin were tested as reference compounds (Yuzwa et al. 2008 Nature Chemical Biology 4:483; Yuzwa et al. 2012 Nature Chemical Biology 8:393). The assay was performed in 200 mM Citrate/phosphate buffer supplemented with 0.005% Tween-20. 35.6 g Na2HPO4 2 H2O (Sigma, #C0759) were dissolved in 1 L water to obtain a 200 mM solution. 19.2 g citric acid (Merck, #1.06580) was dissolved in 1 L water to obtain a 100 mM solution. pH of the sodiumphosphate solution was adjusted with the citric acid solution to 7.2. The buffer to stop the reaction consists of a 500 mM Carbonate buffer, pH 11.0. 734 mg FM-GlcNAc were dissolved in 5.48 mL DMSO to obtain a 250 mM solution and was stored at −20° C. OGA was used at a 2 nM concentration and FM-GlcNAc at a 100 uM final concentration. Dilutions were prepared in assay buffer.
50 nl of a compound dissolved in DMSO was dispensed on Black Proxiplate TM 384 Plus Assay plates (Perkin Elmer, #6008269) and 3 μl fl-OGA enzyme mix added subsequently. Plates were pre-incubated for 60 min at room temperature and then 2 μl FM-GlcNAc substrate mix added. […] Plates were briefly centrifuged for 1 min at 1000 rpm and incubate at room temperature for 6 h. To stop the reaction 5 μl STOP buffer were added and plates centrifuge again 1 min at 1000 rpm. Fluorescence was quantified in the Thermo Scientific Fluoroskan Ascent or the PerkinElmer EnVision with excitation wavelength 485 nm and emission wavelength 538 nm.
For analysis a best-fit curve is fitted by a minimum sum of squares method. From this an IC50 value and Hill coefficient was obtained. High control (no inhibitor) and low control (saturating concentrations of standard inhibitor) were used to define the minimum and maximum values.

Compound | EC50 (hOGA) | Emax (hOGA) | IC50 [1] | Emax [1]
Cc1cc(C)c(Nc2nncc3c2ccn3CC(=O)N(C)C)c(C)c1 [Co. No. 5] | 21.4 nM | 92% | 4.27 nM | 99%
Cc1cc(C(F)(F)F)cc(C)c1Nc1nncc2c1ccn2CC(=O)N(C)C [Co. No. 1] | 24 nM | 68% | 15.1 nM | 101%
Cc1cc(Cl)cc(C(F)(F)F)c1Nc1nncc2c1ccn2CC(=O)N(C)C [Co. No. 4] | 74.1 nM | 63% | 19.1 nM | 100%
Cc1ccnc(C(C)C)c1Nc1nncc2c1ccn2CC(=O)N(C)C [Co. No. 2] | 138 nM | 138% | 21.4 nM | 98%
Cc1cc(OC(F)(F)F)cc(Cl)c1Nc1nncc2c1ccn2CC(=O)N(C)C [Co. No. 3] | 15.8 nM | 108% | 6.31 nM | 101%
